Measurements published in patent US20220291236A1, “DETECTION OF DYSTROGLYCAN” (ML Bio Solutions Inc., priority 2021, published 2022).

Test system: alpha-dystroglycan (αDG)
Experiment: Multiplexed Western Blot of total αDG and glycosylated αDG in muscle lysates of P448L mutant FKRP mice untreated or treated with 5% Ribitol
Type: in vivo, mouse
Conditions: 5% Ribitol treated P488L mice compared to untreated P488L mice, heart muscle and TA lysates, region ~50-250 kDa
Method: Tissue samples were processed using a TissueLyzer IITM (Qiagen®). Approximately 250 milligrams (mg) of tissue was placed in a 2 mL microtube with a steel bead and 1 mL of Radioimmunoprecipitation assay buffer (RIPA) buffer supplemented with protease and phosphatase inhibitors. The microtubes were subjected to three cycles of disruption (2 minutes at 25 Hertz (Hz)) in the TissueLyzer IITM. Lysates were clarified by centrifugation and the supernatant was transferred to fresh tubes and lysate concentration was determined using a BCA assay (Pierce®). Polyacrylamide gel electrophoresis was carried out on 4-20% […] gels. […] The membrane was visualized on an Odyssey CLxTM imager (LiCorTM) and intensities of the 700 and 800 nm channels were recorded. […] Signal intensities were normalized to total protein and the ratio of 700 nm normalized signal/800 nm normalized signal was determined. Linear fits were assessed where applicable using the linear regression function of PrismTM. Statistical significance was determined using an unpaired t-test using PrismTM. 1) StainFree gel image is quantitated using ImageLabTM software to analyze the image from the ChemiDocTM Imaging System. […] Signal intensities were normalized to total protein and the ratio of 700 nm normalized signal/800 nm normalized signal was determined. Linear fits were assessed were applicable using a linear regression function. […]

OC[C@@H](O)[C@@H](O)[C@@H](O)CO [Ribitol, (2R,3s,4S)-Pentane-1,2,3,4,5-pentol]
αDG expression (total αDG signal) (normalized to C57 untreated control (FIG. 6B)): increased | ratio of glycosylated αDG to total αDG (normalized to C57 untreated control (FIG. 6C)): increased
